Experimental data from ChEMBL document CHEMBL4765473, “PF-07059013: A Noncovalent Modulator of Hemoglobin for Treatment of Sickle Cell Disease” (J Med Chem, 2021).
Calls of active or inactive are those of the source. The calls are words filed in the database; no cut-off is given here.

Tested on: not listed separately
Experiment: Distribution coefficient, log D of the compound by shake flask method
Format: physicochemical
Conditions: octanol/water
For C[C@H](Oc1cc2c(F)ccc(F)c2nc1N)c1cc(C(=O)O)ccc1-n1cccn1, the logD was 1.1. C[C@H](Oc1cc2cc(F)cc(F)c2nc1N)c1cc(C(=O)O)ccc1-n1cccn1 gave a logD of 1. C[C@H](Oc1cc2cc(C#N)ccc2nc1N)c1cc(F)ccc1-n1cccn1 showed a logD of 3.8.

Target: Cytochrome P450 3A4 (Homo sapiens, UniProt P08684)
Sequence (P08684 whole entry): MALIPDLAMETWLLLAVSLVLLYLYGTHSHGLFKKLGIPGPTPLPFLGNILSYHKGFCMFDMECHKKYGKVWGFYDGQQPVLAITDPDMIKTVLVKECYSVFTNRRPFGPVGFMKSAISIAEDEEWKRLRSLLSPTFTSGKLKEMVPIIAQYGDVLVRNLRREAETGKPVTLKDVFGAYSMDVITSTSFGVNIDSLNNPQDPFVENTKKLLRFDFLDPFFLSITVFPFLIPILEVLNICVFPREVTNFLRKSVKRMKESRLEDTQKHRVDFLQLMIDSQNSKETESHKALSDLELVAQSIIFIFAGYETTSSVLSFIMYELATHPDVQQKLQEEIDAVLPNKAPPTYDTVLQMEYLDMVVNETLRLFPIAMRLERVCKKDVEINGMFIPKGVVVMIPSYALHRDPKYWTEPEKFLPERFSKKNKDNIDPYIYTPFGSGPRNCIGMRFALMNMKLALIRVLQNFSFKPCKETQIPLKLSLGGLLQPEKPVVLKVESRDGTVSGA
Experiment: Inhibition of CYP3A4 (unknown origin)
Format: ADME
Conditions: not given
Work on C[C@H](Oc1cc2cc(F)cc(F)c2nc1N)c1cc(C(=O)O)ccc1-n1cccn1 yielded an IC50 of over 30 µM.

Tested on: not listed separately
Experiment: Half life in human hepatocytes by NMR analysis
Format: ADME, cell-based, Hepatocyte
Conditions: not given
Compound C=CCOC(=O)[C@H]1O[C@@H](OC(=O)c2ccc(-n3cccn3)c([C@H](C)Oc3cc4cc(F)cc(F)c4nc3N)c2)[C@H](O)[C@@H](O)[C@@H]1O has a half-life of 2.18 h.

Target: T1, Voltage-gated inwardly rectifying potassium channel KCNH2 (Homo sapiens, UniProt Q12809)
T1 sequence (Q12809 whole entry): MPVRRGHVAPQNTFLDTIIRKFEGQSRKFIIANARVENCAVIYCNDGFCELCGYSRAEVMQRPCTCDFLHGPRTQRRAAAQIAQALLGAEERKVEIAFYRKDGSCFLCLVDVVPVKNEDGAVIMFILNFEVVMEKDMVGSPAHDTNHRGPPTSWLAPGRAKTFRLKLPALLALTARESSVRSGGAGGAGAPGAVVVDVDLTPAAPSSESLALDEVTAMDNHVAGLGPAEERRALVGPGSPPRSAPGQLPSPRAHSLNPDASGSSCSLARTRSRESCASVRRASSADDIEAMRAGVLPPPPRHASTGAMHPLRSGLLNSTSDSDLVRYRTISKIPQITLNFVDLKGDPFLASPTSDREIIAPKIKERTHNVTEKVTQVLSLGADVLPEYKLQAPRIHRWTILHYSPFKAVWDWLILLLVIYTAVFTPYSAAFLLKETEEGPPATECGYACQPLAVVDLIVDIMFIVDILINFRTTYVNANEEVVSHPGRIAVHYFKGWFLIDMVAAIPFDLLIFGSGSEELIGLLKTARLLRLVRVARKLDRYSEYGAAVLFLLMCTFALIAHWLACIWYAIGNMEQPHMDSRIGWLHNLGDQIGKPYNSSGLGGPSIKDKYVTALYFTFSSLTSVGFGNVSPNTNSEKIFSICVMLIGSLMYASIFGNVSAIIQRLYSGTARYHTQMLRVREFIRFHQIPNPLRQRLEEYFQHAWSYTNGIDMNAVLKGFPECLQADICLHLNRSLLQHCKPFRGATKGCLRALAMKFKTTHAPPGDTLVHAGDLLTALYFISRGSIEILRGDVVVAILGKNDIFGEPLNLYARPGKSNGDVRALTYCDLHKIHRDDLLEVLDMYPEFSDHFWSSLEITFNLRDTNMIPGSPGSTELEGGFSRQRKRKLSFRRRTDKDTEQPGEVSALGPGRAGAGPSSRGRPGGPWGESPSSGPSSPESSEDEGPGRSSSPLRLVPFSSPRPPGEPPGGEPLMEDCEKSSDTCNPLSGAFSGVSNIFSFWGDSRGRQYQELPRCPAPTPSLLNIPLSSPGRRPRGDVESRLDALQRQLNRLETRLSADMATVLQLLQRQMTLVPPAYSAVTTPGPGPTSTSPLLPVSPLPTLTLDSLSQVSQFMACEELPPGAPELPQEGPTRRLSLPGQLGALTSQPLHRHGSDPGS
Experiment: Binding affinity to human ERG by dofetilide fluorescence polarization binding assay
Conditions: not given
C[C@H](Oc1cc2cc(F)cc(F)c2nc1N)c1cc(C(=O)O)ccc1-n1cccn1 gave a Ki of 40 µM. C[C@H](Oc1cc2cc(C#N)ccc2nc1N)c1cc(F)ccc1-n1cccn1 showed a Ki of over 40 µM.

Target: Cytochrome P450 2C9 (Homo sapiens, UniProt P11712)
Sequence (P11712 whole entry): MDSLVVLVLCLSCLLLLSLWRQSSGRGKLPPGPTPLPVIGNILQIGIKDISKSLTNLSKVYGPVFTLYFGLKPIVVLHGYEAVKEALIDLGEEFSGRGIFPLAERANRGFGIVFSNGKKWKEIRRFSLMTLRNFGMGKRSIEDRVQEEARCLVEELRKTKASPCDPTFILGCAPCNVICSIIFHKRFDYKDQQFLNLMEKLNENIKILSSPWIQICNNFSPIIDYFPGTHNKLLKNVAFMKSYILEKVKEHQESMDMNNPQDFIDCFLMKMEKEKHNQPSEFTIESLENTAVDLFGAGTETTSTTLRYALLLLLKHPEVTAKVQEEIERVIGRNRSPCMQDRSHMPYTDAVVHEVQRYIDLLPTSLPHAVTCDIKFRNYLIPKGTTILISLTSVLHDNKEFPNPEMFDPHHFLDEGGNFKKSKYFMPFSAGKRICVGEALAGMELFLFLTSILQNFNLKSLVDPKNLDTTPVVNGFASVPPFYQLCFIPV
Experiment: Inhibition of CYP2C9 (unknown origin)
Format: ADME
Conditions: not given
C[C@H](Oc1cc2cc(F)cc(F)c2nc1N)c1cc(C(=O)O)ccc1-n1cccn1 gave an IC50 of 20.6 µM.

Target: T2, Cytochrome P450 1A2 (Homo sapiens, UniProt P05177)
T2 sequence (P05177 whole entry): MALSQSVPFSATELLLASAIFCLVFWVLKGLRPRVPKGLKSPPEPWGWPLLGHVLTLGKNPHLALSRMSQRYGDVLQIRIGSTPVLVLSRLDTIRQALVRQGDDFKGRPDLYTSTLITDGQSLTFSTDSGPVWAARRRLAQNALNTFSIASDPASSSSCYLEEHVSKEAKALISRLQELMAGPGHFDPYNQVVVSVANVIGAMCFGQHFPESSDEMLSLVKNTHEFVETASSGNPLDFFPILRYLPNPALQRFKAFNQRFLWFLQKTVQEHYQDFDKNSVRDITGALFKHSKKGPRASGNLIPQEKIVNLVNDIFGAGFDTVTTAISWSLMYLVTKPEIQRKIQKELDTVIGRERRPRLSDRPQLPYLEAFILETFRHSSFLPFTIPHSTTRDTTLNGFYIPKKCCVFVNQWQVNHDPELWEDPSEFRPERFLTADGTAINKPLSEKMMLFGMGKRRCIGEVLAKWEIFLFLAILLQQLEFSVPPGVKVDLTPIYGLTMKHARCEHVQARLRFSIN
Experiment: Inhibition of CYP1A2 (unknown origin)
Format: ADME
Conditions: not given
Compound C[C@H](Oc1cc2cc(F)cc(F)c2nc1N)c1cc(C(=O)O)ccc1-n1cccn1 has an IC50 of over 30 µM.

Tested on: not listed separately
Experiment: Modulation of HbS (unknown origin) assessed as stabilization of the oxy-state of hemoglobin by measuring conversion from oxyHb (R) to deoxyHb (T) pre-incubated for 1 hr and measured after 120 mins by oxygen dissociation assay
Set-up: species or system Homo sapiens
Conditions: not given
Work on C[C@H](Oc1cc2c(F)ccc(F)c2nc1N)c1cc(C(=O)O)ccc1-n1cccn1 yielded an IC50 of 4.5 µM. For C[C@H](Oc1cc2cc(F)cc(F)c2nc1N)c1cc(C(=O)O)ccc1-n1cccn1, the IC50 was 4.6 µM. Work on C[C@H](Oc1cc2cc(C#N)ccc2nc1N)c1cc(F)ccc1-n1cccn1 yielded an IC50 of 6.1 µM.

Tested on: not listed separately
Experiment: Intrinsic clearance in human hepatocytes assessed per million cells
Format: ADME, cell-based, Hepatocyte
Conditions: read-out: CLH
In the case of C[C@H](Oc1cc2c(F)ccc(F)c2nc1N)c1cc(C(=O)O)ccc1-n1cccn1, the hepatocyte CLint is reported as under 3 µL/min/1e6 cells. Work on C[C@H](Oc1cc2cc(F)cc(F)c2nc1N)c1cc(C(=O)O)ccc1-n1cccn1 yielded a hepatocyte CLint of under 3 µL/min/1e6 cells. With C[C@H](Oc1cc2cc(C#N)ccc2nc1N)c1cc(F)ccc1-n1cccn1 the hepatocyte CLint was 40 µL/min/1e6 cells.

Tested on: not listed separately
Experiment: Drug metabolism in human hepatocytes assessed formation of acyl migration products
Format: ADME, cell-based, Hepatocyte
Conditions: not given
With C=CCOC(=O)[C@H]1O[C@@H](OC(=O)c2ccc(-n3cccn3)c([C@H](C)Oc3cc4cc(F)cc(F)c4nc3N)c2)[C@H](O)[C@@H](O)[C@@H]1O the Drug metabolism was “Metabolite_Detected”.

Target: T3, Cytochrome P450 2C8 (Homo sapiens, UniProt P10632)
T3 sequence (P10632 whole entry): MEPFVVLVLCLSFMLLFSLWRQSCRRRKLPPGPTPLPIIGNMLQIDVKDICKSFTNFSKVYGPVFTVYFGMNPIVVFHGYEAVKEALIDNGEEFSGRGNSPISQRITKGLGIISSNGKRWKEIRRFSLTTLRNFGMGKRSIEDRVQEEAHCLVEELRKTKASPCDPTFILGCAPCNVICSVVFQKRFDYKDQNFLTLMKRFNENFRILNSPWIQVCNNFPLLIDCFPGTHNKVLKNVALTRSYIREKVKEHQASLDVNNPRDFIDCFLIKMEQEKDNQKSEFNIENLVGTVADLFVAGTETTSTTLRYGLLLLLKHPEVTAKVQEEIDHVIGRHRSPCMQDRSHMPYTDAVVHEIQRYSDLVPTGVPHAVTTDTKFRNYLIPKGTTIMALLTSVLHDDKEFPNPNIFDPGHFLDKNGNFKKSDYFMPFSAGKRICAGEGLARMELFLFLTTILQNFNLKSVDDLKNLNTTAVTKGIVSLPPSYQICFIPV
Experiment: Inhibition of CYP2C8 (unknown origin)
Format: ADME
Conditions: not given
In the case of C[C@H](Oc1cc2cc(F)cc(F)c2nc1N)c1cc(C(=O)O)ccc1-n1cccn1, the IC50 is reported as 17.3 µM.

Tested on: not listed separately
Experiment: Drug metabolism in human hepatocytes assessed formation of acyl glucuronides metabolites
Format: ADME, cell-based, Hepatocyte
Conditions: not given
With C[C@H](Oc1cc2cc(F)cc(F)c2nc1N)c1cc(C(=O)O)ccc1-n1cccn1 the Drug metabolism was “Metabolite_Detected”.

Tested on: not listed separately
Experiment: Drug metabolism in human hepatocytes assessed formation of glucuronide metabolites
Format: ADME, cell-based, Hepatocyte
Conditions: not given
With C[C@H](Oc1cc2cc(F)cc(F)c2nc1N)c1cc(C(=O)O)ccc1-n1cccn1 the Drug metabolism was “Metabolite_Detected”.

Target: not listed separately
Experiment: Binding affinity to purified human cross-linked HbS by SPR analysis
Conditions: not given
Work on Cc1n[nH]cc1-c1cnc(N)c(O[C@H](C)c2cc(F)ccc2-n2cccn2)c1 yielded a Kd of over 300 µM. For C[C@H](Oc1cc2c(F)ccc(F)c2nc1N)c1cc(C(=O)O)ccc1-n1cccn1, the Kd was 0.064 µM. Compound C[C@H](Oc1cc2cc(F)cc(F)c2nc1N)c1cc(C(=O)O)ccc1-n1cccn1 has a Kd of 0.037 µM. Compound C[C@H](Oc1cc2cc(C#N)ccc2nc1N)c1cc(F)ccc1-n1cccn1 has a Kd of 0.322 µM.

Tested on: not listed separately
Experiment: Apparent permeability from apical to basolateral side in MDCK-MDR1 cells
Format: ADME, cell-based, Canis lupus familiaris
Conditions: dog
C[C@H](Oc1cc2cc(F)cc(F)c2nc1N)c1cc(C(=O)O)ccc1-n1cccn1 gave a Papp A→B of 0.4 ×10⁻⁶ cm/s.

Target: T1, Voltage-gated inwardly rectifying potassium channel KCNH2
Experiment: Inhibition of human ERG by patch clamp assay
Conditions: not given
Compound C[C@H](Oc1cc2cc(F)cc(F)c2nc1N)c1cc(C(=O)O)ccc1-n1cccn1 has an IC50 of 144 µM.

Tested on: not listed separately
Experiment: Unbound fraction in human plasma
Format: ADME, cell-free
Conditions: not given
In the case of C[C@H](Oc1cc2cc(F)cc(F)c2nc1N)c1cc(C(=O)O)ccc1-n1cccn1, the fraction unbound is reported as 0.027.

Tested on: not listed separately
Experiment: Protein binding in human blood
Format: ADME, tissue-based
Conditions: not given
In the case of C[C@H](Oc1cc2cc(F)cc(F)c2nc1N)c1cc(C(=O)O)ccc1-n1cccn1, the PB is reported as “Dose-dependent effect”.

Tested on: not listed separately
Experiment: Apparent permeability in MDCK cells
Format: ADME, cell-based, Canis lupus familiaris
Conditions: dog
C[C@H](Oc1cc2cc(F)cc(F)c2nc1N)c1cc(C(=O)O)ccc1-n1cccn1 gave a Papp of 3 ×10⁻⁶ cm/s.

Species on record: Homo sapiens
Experiment: Binding affinity to HbS tetramer (unknown origin) by ESI-MS analysis
Conditions: filed as modulator
For Cc1n[nH]cc1-c1cnc(N)c(OC(C)c2cc(F)ccc2-n2cccn2)c1 (racemic), the Activity was “Active”.

Tested on: not listed separately
Experiment: Protein binding in human RBC assessed as unbound fraction at 1 mM
Format: ADME, tissue-based, Erythrocyte
Conditions: red blood cells (RBC)
Compound C[C@H](Oc1cc2cc(F)cc(F)c2nc1N)c1cc(C(=O)O)ccc1-n1cccn1 has a fraction unbound at 1000 µM of 0.000577.

Tested on: not listed separately
Experiment: Apparent permeability from basolateral to apical side in MDCK-MDR1 cells
Format: ADME, cell-based, Canis lupus familiaris
Conditions: dog
Work on C[C@H](Oc1cc2cc(F)cc(F)c2nc1N)c1cc(C(=O)O)ccc1-n1cccn1 yielded a Papp B→A of 4 ×10⁻⁶ cm/s.

Tested on: Mus musculus
Experiment: Binding to HbS in sickle Townes mouse at 30 to 900 mg/kg, po dosed via gavage measured after 0.5 to 24 hrs by Hemox-analyzer based assay
Format: functional, organism-based
Conditions: dose 30-900 mg/kg, time 0.5-24 hrs
In the case of C[C@H](Oc1cc2cc(F)cc(F)c2nc1N)c1cc(C(=O)O)ccc1-n1cccn1, the PPB is reported as “Dose-dependent effect”.

Target: Cytochrome P450 2D6 (Homo sapiens, UniProt P10635)
Sequence (P10635 whole entry): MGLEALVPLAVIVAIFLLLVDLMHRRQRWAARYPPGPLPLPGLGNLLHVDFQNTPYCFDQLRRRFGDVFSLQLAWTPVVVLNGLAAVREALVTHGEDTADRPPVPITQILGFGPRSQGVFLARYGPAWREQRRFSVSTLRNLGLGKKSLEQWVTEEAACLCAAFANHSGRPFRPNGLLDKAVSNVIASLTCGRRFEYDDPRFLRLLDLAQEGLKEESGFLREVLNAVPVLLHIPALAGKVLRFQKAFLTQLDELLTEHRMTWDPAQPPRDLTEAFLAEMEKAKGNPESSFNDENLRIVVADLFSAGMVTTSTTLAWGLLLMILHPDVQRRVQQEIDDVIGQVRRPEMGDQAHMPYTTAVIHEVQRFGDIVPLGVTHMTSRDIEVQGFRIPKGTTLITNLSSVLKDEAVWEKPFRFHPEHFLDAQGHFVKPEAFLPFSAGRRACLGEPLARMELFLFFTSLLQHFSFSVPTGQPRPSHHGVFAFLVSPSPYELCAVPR
Experiment: Inhibition of CYP2D6 (unknown origin)
Format: ADME
Conditions: not given
For C[C@H](Oc1cc2cc(F)cc(F)c2nc1N)c1cc(C(=O)O)ccc1-n1cccn1, the IC50 was over 30 µM.
